Data published in patent US20230389543A1, “SOLID PHASE MATRIX FOR CROP PROTECTION” (North Carolina State University, priority 2020, published 2023).
“And” between values parts separate entries of the source, which are not always exact repeats. Identical values can stand only once.

Key:
[1] = tested on: Sweet potatoes (cv. Covington); test: Sweet potato field trial, yield; assay type: in vivo
Experimental: (§1) Location: The field trial was conducted on a farm in Woodington, NC. The field was confirmed positive for Meloidogyne enterolobii through NCDA Nematode Assay Lab analysis.
(§2) Trial set-up: Sweet potatoes (cv. Covington) were planted at 11 inch within row spacing and 42 inch rows. Plots were 4 rows wide by 10 ft long, with 10 feet between plots. Plots were maintained by the grower collaborator using standard agronomic practices. Vigor data, soil samples for mid-season nematode counts, and harvest data was collected. At harvest, the middle two rows of each plot were dug by hand and tubers assessed. Data were analyzed, plotted, and effect of treatment on yield and nematode variables was assessed through mean separation in R (v. 3.6.2).
Formulations and Application rates: Six different wrap and plant formulations and 2 control treatment were tested.
For each plot the tuber were collect and sorted into 2 groups: #1 grade and cutters/jumbos. In addition, the number of #1 tubers were counted.

Lesion Nematode = test: Sweet potato field trial, lesion nematode count at harvest; assay type: in vivo
Experimental: as §1, §2
(§3) At harvest a soil sample from each plot was collected and 100 cc of soil extracted to determine nematode populations. Three genera of nematode were observed (RKN, stunt and lesion). Counts for the two highest population species, RKN and Lesion at the harvest sampling are reported per 100 g of soil. Population counts of RKN, lesion, and stunt nematode were transformed (log 10(n+1)) prior to analysis to fit assumptions of normality.

Root Knot Nematode = test: Sweet potato field trial, root knot nematode count at harvest; assay type: in vivo, Meloidogyne enterolobii
Experimental: as §1, §2, §3

`O=C(NCCc1ncc(C(F)(F)F)cc1Cl)c1ccccc1C(F)(F)F` [Treatment 3, Fluopyram] was tested, and the “Average Total Yield” value ([1]; Table 12) was 22.1, the “Yield #1 Tubers, Average” value ([1]; average of 4 plots) was 9.8 kg and the “No. of #1 tubers” value ([1]; single plot) was 32 and 36 and 30 and 38. The “Total Yield” value ([1]; single plot) was 22.8 kg and 28.05 kg and 20.9 kg and 16.8 kg, the “Yield of #1” value ([1]; single plot) was 9.35 kg and 12.15 kg and 9.75 kg and 8.1 kg and the “Yield of Jumbo & Canners” value ([1]; single plot) was 13.45 kg and 15.9 kg and 11.15 kg and 8.7 kg. The “Yield #1 Tubers” value ([1]; single plot, Table 10, listed as Grower Standard) was 8.1 kg and 9.4 kg and 12.2 kg and 9.8 kg, the “Average Lesion Population at Harvest” value (Lesion Nematode; Table 12) was 118.75 /100 cc soil and the “Lesion Population, Average” value (Lesion Nematode; average of 4 plots) was 118.75. For the same compound, the “Average RKN Population at Harvest” value (Root Knot Nematode; Table 12) was 12.5 /100 cc soil and the “RKN Population, Average” value (Root Knot Nematode; average of 4 plots) was 12.5.
